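Following 48 hours of exposure in 96-well plates, responses at five concentrations were used to interpolate endpoints linearly. GI50: concentration for 50% inhibition of growth. TGI: total growth inhibition.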
Tests used:
Assay in all cases: DTP human tumour cell line panel, 48 h
NCI-H522 lung = tested on: NCI-H522 lung
SF-539 CNS = tested on: SF-539 CNS
ACHN renal = tested on: ACHN renal
K-562 leukemia = tested on: K-562 leukemia
CCRF-CEM leukemia = tested on: CCRF-CEM leukemia
NCI-H23 lung = tested on: NCI-H23 lung
SK-MEL-5 melanoma = tested on: SK-MEL-5 melanoma
SF-295 CNS = tested on: SF-295 CNS
A498 renal = tested on: A498 renal
BT-549 breast = tested on: BT-549 breast

Row | Structure (SMILES) | TGI (NCI-H522 lung) [µM] | TGI (SF-539 CNS) [µM] | TGI (ACHN renal) [µM] | TGI (K-562 leukemia) [µM] | TGI (CCRF-CEM leukemia) [µM] | TGI (NCI-H23 lung) [µM] | TGI (SK-MEL-5 melanoma) [µM] | TGI (SF-295 CNS) [µM] | TGI (A498 renal) [µM] | GI50 (NCI-H522 lung) [µM] | GI50 (A498 renal) [µM] | GI50 (SF-539 CNS) [µM] | GI50 (ACHN renal) [µM] | GI50 (K-562 leukemia) [µM] | GI50 (NCI-H23 lung) [µM] | GI50 (SK-MEL-5 melanoma) [µM] | GI50 (SF-295 CNS) [µM] | GI50 (BT-549 breast) [µM] | TGI (BT-549 breast) [µM] | GI50 (CCRF-CEM leukemia) [µM]
1 | CC(=O)OCC1OC(n2ncc(=O)[nH]c2=O)C(OC(C)=O)C1OC(C)=O (centres undefined) | > 100 | > 100 | > 100 | > 100 | > 100 | > 100 | > 100 | > 100 | – | – | – | – | – | – | – | – | – | – | – | –
2 | CC(C)=NNC(=S)NC12CC3CC(CC(C3)C1)C2 | > 100 | > 100 | > 100 | > 100 | > 100 | > 100 | > 100 | > 100 | > 100 | – | – | – | – | – | – | – | – | – | – | –
3 | CCNCCNc1cc(-c2ccc(C(F)(F)F)cc2)c(C#N)c2nc3cc(Cl)c(Cl)cc3n12 | 3.37 | 3.23 | 3.1 | 0.365 | – | 3.52 | 3.04 | 3.2 | 3.6 | 1.78 | 2 | 1.74 | 1.61 | 0.183 | 1.77 | 1.67 | 1.73 | – | – | –
4 | COc1cc(CCC(=O)NC[C@@H](O)c2ccccc2)ccc1O | > 100 | > 100 | > 100 | > 100 | > 100 | > 100 | > 100 | > 100 | – | > 100 | – | > 100 | > 100 | 56.8 | > 100 | > 100 | > 100 | > 100 | > 100 | > 100
5 | C=C1CC2(CCS(=O)(=O)c3ccccc32)OC1=O (centres undefined) | 11.4 | 18.1 | 23.7 | 34.4 | 11 | 27.7 | 27 | 45 | 31.5 | – | – | – | – | – | – | – | – | – | – | –
6 | COC12OCCN(C)C1=CC(=O)C1(C)N=NCC12 (centres undefined) | > 100 | > 100 | > 100 | > 100 | > 100 | > 100 | > 100 | > 100 | > 100 | – | – | – | – | – | – | – | – | – | – | –
7 | CCOC(=O)CN(c1ccccc1)c1nc(=[N+](C)C)ss1 | 0.492 | > 100 | > 100 | > 100 | 36.5 | – | – | – | > 100 | – | – | – | – | – | – | – | – | – | – | –
8 | Cc1ccc(C(=O)NCCN(C)C)c2nc3ccccc3cc12 | – | – | 10.3 | > 100 | > 100 | – | 2.95 | 3.8 | – | – | – | – | – | – | – | – | – | – | – | –
9 | O=C(O)Cc1ccc(N=Nc2c(O)c(C(=O)O)cc3ccccc23)cc1 | – | > 100 | > 100 | > 100 | > 100 | – | > 100 | > 100 | – | – | – | – | – | – | – | – | – | – | > 100 | –
10 | CCCCCCCCCCCCCCCCN(CC)CC | 3.48 | 3.06 | 4.45 | – | – | 9 | 3.79 | 3.55 | 37.2 | 1.76 | 17.9 | 1.67 | 2.1 | – | 2.83 | 1.94 | 1.73 | 1.87 | 3.89 | –
11 | COc1cc2nc3cc([N+](=O)[O-])ccc3c(NCCNCC(C)O)c2cc1OC (centres undefined) | 1.06 | 2.47 | 3.93 | – | 3.13 | 3.07 | – | 3.34 | 3.02 | 0.224 | 1.37 | 0.693 | 0.614 | – | 0.554 | – | 0.484 | 1.75 | 3.9 | 0.34

Reference: PubChem BioAssay (NCI)
